Assay results as given in patent US20240270759A1, “Preparation of SHP2 phosphatase inhibitors and its applications” (Ya Therapeutics Inc, priority 2021, published 2024).

These compounds were tested against T1, SHP2 full-length protein (Homo sapiens, UniProt Q06124) (assay: SHP2 allosteric inhibition experiment (Homogeneous Full Length SHP-2 Assay Kit)). Details: full-length SHP2 0.06 nM with SHP-2 activating peptide; ten-point, 1 μM to 0.05 nM; read-out: IC50 Values of Compounds Inhibiting SHP2.
T1 construct: purchased BPS Bioscience #79330
T1 sequence (Q06124 1-593): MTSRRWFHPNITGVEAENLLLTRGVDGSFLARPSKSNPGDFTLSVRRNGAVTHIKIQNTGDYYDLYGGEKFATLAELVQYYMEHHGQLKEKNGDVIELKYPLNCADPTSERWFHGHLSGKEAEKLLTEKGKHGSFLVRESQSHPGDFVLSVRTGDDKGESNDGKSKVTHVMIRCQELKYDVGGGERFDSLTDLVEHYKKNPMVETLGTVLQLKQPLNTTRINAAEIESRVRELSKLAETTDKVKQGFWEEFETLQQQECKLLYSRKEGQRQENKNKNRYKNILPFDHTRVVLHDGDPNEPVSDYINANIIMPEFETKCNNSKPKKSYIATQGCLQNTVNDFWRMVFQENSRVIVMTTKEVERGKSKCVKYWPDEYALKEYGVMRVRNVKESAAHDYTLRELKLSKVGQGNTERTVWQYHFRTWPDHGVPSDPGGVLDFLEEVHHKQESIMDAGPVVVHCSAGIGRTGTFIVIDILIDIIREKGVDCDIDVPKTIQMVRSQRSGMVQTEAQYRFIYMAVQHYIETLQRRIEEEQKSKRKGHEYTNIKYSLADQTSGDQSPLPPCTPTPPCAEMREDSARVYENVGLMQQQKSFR
Type: biochemical
From the text: The following further describes and explains the present invention in combination with test examples, but these examples are not meant to limit the scope of the present invention. SHP2 allosteric inhibition experiment
The purpose of this test is to measure the ability of the compounds to inhibit the allosteric activity of the SHP2 full-length protein. Experimental equipment: a centrifuge (5810R) is purchased from Eppendorf Company; pipettes are purchased from Eppendorf Company and Rainin Company, and microplate readers are purchased from BioTek Company of the United States, SynergyH1 multimode microplate reader.
Experimental method: Homogeneous Full Length SHP-2 Assay Kit (BPS Bioscience, #79330) is used to detect SHP2 activity in vitro. First, add 18 μL of Master Mix to 96-well low-adsorption microplate (NUNC, #267342), that is, 0.5 μL of SHP-2 activating Peptide and 5 mM DTT are included in the reaction buffer with a final concentration of 1×. After centrifugation, add 5 μL of the compound to be tested in DMSO (final DMSO content is 1% (V/V) in each well: dissolve the compound to be tested in DMSO to 1 mM, conduct triple dilution with a total of 10 concentration levels ranging from 1 μM to 0.05 nM in the reaction buffer. After diluting SHP2 in 1× reaction buffer to a final concentration of 0.06 nM, add it to the reaction microwell plate, 2 μL per well. Set a full activity control ([…]) and a full inhibition control (without SHP-2) on the reaction plate, and incubate the reaction mixture at room temperature for 60 minutes after centrifugation.
After incubation, add 25 μL of Substrate solution to each well, containing Substrate with a final concentration of 10 μM and DTT with a final concentration of 5 mM, and after centrifugation, continue to incubate at room temperature for 30 minutes. After the reaction, set the excitation wavelength at 340 nm, the emission wavelength at 455 nm, and the gain value to 75 on the Synergy H1 microplate reader (Biotek) for reading.
Take the full activity control and full inhibition control as the values of Max and Min, and calculate the percentage inhibition rate of the wells treated with the compound based on the positive control wells (DMSO control wells) and negative control wells (no kinase added) on the reaction plate, (inhibition rate percentage=100−[(test compound−Min average value)/(Max average value−Min average value)]×100%. IC50 values of test compounds are calculated by fitting percentage of inhibition and ten-point concentration data to a 4-parameter nonlinear logic formula using GraphPad prism.

| SMILES | IC50 [nM] |
| --- | --- |
| C[C@@H]1OCC2(CCN(c3ccc4nc(Sc5cccc(NC(=O)c6cnccn6)c5Cl)ncc4n3)CC2)[C@@H]1N [Compound 86, N-(3-((6-((3S,4S)-4-amino-3-methyl-2-oxa-8-azaspiro[4.5]decane-8-yl)pyridinyl[3,2-d]pyrimidine-2-yl)mercapto)-2-chlorophenyl)pyrazine-2-carboxamide] | ≤ 10 |
| C[C@@H]1OCC2(CCN(c3cnc4nc(Sc5cccc(NC(=O)c6c(O)nc7n(c6=O)CCCC7)c5Cl)ncc4n3)CC2)[C@@H]1N [Compound 87, N-(3-((6-((3S,4S)-4-amino-3-methyl-2-oxa-8-azaspiro[4.5]decane-8-yl)pteridine-2-yl)mercapto)-2-chlorophenyl)-2-hydroxy-4-oxo-6,7,8,9-tetrahydro-4H-pyridinyl[1,2-a]p yrimidine-3-carboxamide] | ≤ 10 |
| C[C@@H]1OCC2(CCN(c3ncc4nc(Sc5cccc(NC(=O)c6c(O)nc7n(c6=O)CCCC7)c5Cl)cnc4n3)CC2)[C@@H]1N [Compound 88, N-(3-((2-((3S,4S)-4-amino-3-methyl-2-oxa-8-azaspiro[4.5]decane-8-yl)pteridine-6-yl)mercapto)-2-chlorophenyl)-2-hydroxy-4-oxo-6,7,8,9-tetrahydro-4H-pyridinyl[1,2-a]p yrimidine-3-carboxamide] | ≤ 10 |
| C[C@@H]1OCC2(CCN(c3ccc4nc(Sc5cccc(NC(=O)c6c(O)nc7n(c6=O)CCCC7)c5Cl)ncc4n3)CC2)[C@@H]1N [Compound 89, N-(3-((6-((3S,4S)-4-amino-3-methyl-2-oxa-8-azaspiro[4.5]decane-8-yl)pyridinyl[3,2-d]pyrimidine-2-yl)mercapto)-2-chlorophenyl)-2-hydroxy-4-oxo-6,7,8,9-tetrahydro-4H-pyridinyl[1,2-a]pyrimidine-3-carboxamide] | ≤ 10 |
| C[C@@H]1OCC2(CCN(c3ncc4nc(Sc5cccc(-c6ccn(C)n6)c5Cl)ccc4n3)CC2)[C@@H]1N [Compound 90, (3S,4S)-8-(6-((2-chloro-3-(1-methyl-1H-pyrazole-3-yl)phenyl)mercapto)pyridinyl[3,2-b]pyrimidine-2-yl)-3-methyl-2-oxa-8-azaspiro[4.5]decane-4-amine] | ≤ 10 |
| C[C@@H]1OCC2(CCN(c3ccc4nc(Sc5cccc(-c6ccn(C)n6)c5Cl)cnc4n3)CC2)[C@@H]1N [Compound 91, (3S,4S)-8-(2-((2-chloro-3-(1-methyl-1H-pyrazole-3-yl)phenyl)mercapto)pyridinyl[2,3-b]pyrazine-6-yl)-3-methyl-2-oxa-8-azaspiro[4.5]decane-4-amine] | ≤ 10 |

Second part, the compound after the results:

| IC50 [nM] | SMILES |
| --- | --- |
| ≤ 10 | C[C@@H]1OCC2(CCN(c3cnc4nc(Sc5cccc(-c6ccn(C)n6)c5Cl)ccc4n3)CC2)[C@@H]1N [Compound 92, (3S,4S)-8-(6-((2-chloro-3-(1-methyl-1H-pyrazole-3-yl)phenyl)mercapto)pyridinyl[2,3-b]pyrazine-2-yl)-3-methyl-2-oxa-8-azaspiro[4.5]decane-4-amine] |
| ≤ 10 | C[C@@H]1OCC2(CCN(c3ncc4nc(Sc5cccc(Oc6ccn(C)n6)c5Cl)cnc4n3)CC2)[C@@H]1N [Compound 93] |
| ≤ 10 | C[C@@H]1OCC2(CCN(c3cnc4nc(Sc5cccc(Oc6ccn(C)n6)c5Cl)ncc4n3)CC2)[C@@H]1N [Compound 94] |
| ≤ 10 | C[C@@H]1OCC2(CCN(c3ccc4nc(Sc5cccc(Oc6ccn(C)n6)c5Cl)ncc4n3)CC2)[C@@H]1N [Compound 95] |
| ≤ 10 | C[C@@H]1OCC2(CCN(c3ncc4nc(Sc5cccc(NC(=O)c6c(O)nc7n(c6=O)CCCC7)c5Cl)ccc4n3)CC2)[C@@H]1N [Compound 96, N-(3-((2-((3S,4S)-4-amino-3-methyl-2-oxa-8-azaspiro[4.5]decane-8-yl)pyridinyl[3,2-d]pyrimidine-6-yl)mercapto)-2-chlorophenyl)-2-hydroxy-4-oxo-6,7,8,9-tetrahydro-4H-pyridinyl[1,2-a]pyrimidine-3-carboxamide] |
